Source: patent publication US4788197A, “Pyrazine derivatives useful as platelet aggregation inhibitors” (Terumo Kabushiki Kaisha, priority 1985, dated 1988)
Like-named read-outs stand apart in the source and are kept apart here.

Experiments:
[1] = tested on: platelet aggregation; test: Platelet aggregation-inhibiting action (Born's turbidimetric method, platelet-rich plasma); assay type: cell-based, rabbit; settings: Oryctolagus cuniculus, 0.05 h
Protocol: Nine volumes of blood was drawn from the carotid artery of a rabbit using a syringe containing one volume of 3.8% solution of sodium citrate. The blood was centrifuged to obtain platelet-rich plasma (PRP: 7×10^5 platelets/μl).
In a cuvette was placed 268 μl of the PRP, which was warmed in an isothermic bath at 37° C. for 2 minutes. To the cuvette was added 2 μl of an ethanol solution of a pyrazine derivative to be tested, followed by an incubation for 3 minutes. To the incubate was added a solution of a platelet-aggregation inducer, arachidonic acid or collagen. Measurement was made by Born's turbidimetric method (for example, see J. Physiol., vol. 168, p. 178, 1968). 50% inhibitory concentration for the platelet aggregation caused by arachidonic acid (50 μmol.) or collagen (10 μg/ml) was given in Table 1 using acetylsalicylic acid as the reference.
The 50% inhibitory concentration as shown in table means the concentration of a solution of the pyrazine derivative required for inhibiting the platelet aggregation to 50% when the platelet aggregation in the absence of a pyrazine derivative is taken as 100%.

[2] = target: T1, cycloxygenase (Oryctolagus cuniculus, UniProt O97554); test: Cycloxygenase inhibiting activity (washed platelets as cycloxygenase source); assay type: biochemical; settings: washed rabbit platelets, 14C-labelled arachidonic acid, 37° C., 3 minutes; read-out: 50% Inhibitory concentration (cycloxygenase)
T1 construct: The washed platelets thus obtained were employed as a cycloxygenase source; from tissue; host or cells: washed rabbit blood platelets
T1 sequence (O97554 31-606): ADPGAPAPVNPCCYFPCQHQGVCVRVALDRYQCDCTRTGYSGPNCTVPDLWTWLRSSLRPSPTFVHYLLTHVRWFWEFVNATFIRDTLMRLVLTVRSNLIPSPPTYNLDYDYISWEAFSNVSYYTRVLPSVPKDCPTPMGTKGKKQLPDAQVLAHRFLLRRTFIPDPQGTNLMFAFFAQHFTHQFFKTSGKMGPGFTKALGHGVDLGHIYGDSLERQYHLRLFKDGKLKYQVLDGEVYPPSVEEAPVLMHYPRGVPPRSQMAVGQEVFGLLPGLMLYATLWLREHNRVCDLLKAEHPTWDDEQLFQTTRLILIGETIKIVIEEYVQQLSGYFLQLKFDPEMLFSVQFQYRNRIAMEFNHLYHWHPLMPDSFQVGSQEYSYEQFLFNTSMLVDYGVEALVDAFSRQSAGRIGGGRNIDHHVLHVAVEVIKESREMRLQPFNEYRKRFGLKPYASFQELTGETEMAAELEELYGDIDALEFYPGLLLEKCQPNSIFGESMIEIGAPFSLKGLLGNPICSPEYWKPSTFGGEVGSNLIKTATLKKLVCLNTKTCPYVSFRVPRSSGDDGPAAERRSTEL
Protocol: Nine volumes of blood was drawn from the abdominal artery of a rabbit using a syringe containing one volume of 3.8% solution of sodium citrate. Centrifugation of the blood afforded platelet-rich plasma. To the platelet-rich plasma was added 77 mM EDTA solution in a volume of 1/10 per volume of the plasma. The mixture was thoroughly mixed and centrifuged at 2500 rpm for 10 minutes. The supernatant was discarded, and the platelets were suspended in approximately 3 ml of a washing solution which was prepared by dissolving 134 mM of sodium chloride, 15 mM of trisaminomethane, 1 mM of EDTA and 5 mM of D-glucose in twice-distilled water with a pH adjusted with 1N hydrogen chloride to 7.4. The suspension was centrifuged at room temperature at 2000 rpm for 10 minutes. The supernatant was discarded, and the precipitated platelets were re-suspended in a phosphate buffer at pH 8.0 to adjust number of the platelets to 1×10^6 per μl.
The washed platelets thus obtained were employed as a cycloxygenase source.
To 3 μg of arachidonic acid and 0.2 μCi (1 μg) of ^14 C-labelled arachidonic acid placed in a glass-stoppered test tube was added one drop of a propylene glycol/ethanol solution (1:3 by volume). The ethanol was evaporated under nitrogen. To the residue were added 50 μl of a solution to be tested and then 450 μl of the washed platelets. The mixture was reacted at 37° C. for 3 minutes.
To the reaction mixture was added with ice cooling one drop of 1N hydrogen chloride to adjust the pH to 2-3. To the resulting mixture was added 2 ml of ethyl acetate, followed by extraction by shaking for 10 minutes and centrifugal separation at 4° C. at 2500 rpm for 10 minutes.
The supernatant was transferred to a flask and concentrated. The residue was dissolved in 100 μl of ethanol, and the entire solution was spotted on a silica gel thin plate (Merck, 60 F254).
The plate was developed by approximately 18 cm with a developer solution (chloroform/methanol/acetic acid/waters=70:8:1:0.8), followed by measurement by a radiochromatoscanner of the sum of radioactivities of prostaglandin F2α, thromboxan B2, […], prostaglandin D2 and HHT to determine the inhibiting activity.

[3] = aggregation induced by arachidonic acid (50 μmol.), rabbit PRP, 37° C., 3 min incubation, read-out: 50% aggregation inhibitory concentration, Arachidonic acid
[4] = aggregation induced by collagen (10 μg/ml), rabbit PRP, 37° C., 3 min incubation, read-out: 50% aggregation inhibitory concentration, Collagen

SMILES	IC50 ([1]; read-out: 50% aggregation inhibitory concentration, Arachidonic acid)	IC50 ([1]; read-out: 50% aggregation inhibitory concentration, Collagen)	IC50 [1, 3]	IC50 [1, 4]	IC50 [2]
CC(=O)Oc1ccccc1C(=O)O [Aspirin, acetylsalicylic acid, reference compound]	14 µM	560 µM	–	–	–
Cc1cnc(-c2ccc(Cl)cc2)c(-c2ccc(Cl)cc2)n1 [Example 1, 2,3-bis(p-chlorophenyl)-5-methylpyrazine]	–	–	8.5 µM	20 µM	–
COc1ccc(-c2ncc(Cc3cccs3)nc2-c2ccc(OC)cc2)cc1 [Example 9, 2,3-Bis(p-methoxyphenyl)-5-(2-thienylmethyl)pyrazine]	–	–	0.44 µM	0.79 µM	86 µM
COc1cccc(Cc2cnc(-c3ccccc3)c(-c3ccccc3)n2)c1 [Example 5, 2,3-Diphenyl-5-(m-methoxybenzyl)pyrazine]	–	–	4.5 µM	14 µM	–
COc1ccc(-c2nc(C)c(C)nc2-c2ccc(OC)cc2)cc1 [Example 10, 2,3-bis(p-methoxyphenyl)-5,6-dimethylpyrazine]	–	–	0.084 µM	0.92 µM	62 µM
COc1ccc(-c2ncc(Cc3ccccc3)nc2-c2ccc(OC)cc2)cc1 [Example 6, 2,3-Bis(p-methoxyphenyl)-5-benzylpyrazine]	–	–	0.2 µM	5 µM	–
COc1ccc(-c2ncc(C(C)C)nc2-c2ccc(OC)cc2)cc1 [Example 7, 2,3-Bis(p-methoxyphenyl)-5-isopropylpyrazine]	–	–	0.025 µM	0.79 µM	–
COc1ccc(Cc2cnc(-c3ccccc3)c(-c3ccccc3)n2)cc1 [Example 4, 2,3-Diphenyl-5-(p-methoxybenzyl)pyrazine]	–	–	1.7 µM	35 µM	220 µM
c1ccc(Cc2cnc(-c3ccccc3)c(-c3ccccc3)n2)cc1 [Example 3, 2,3-diphenyl-5-benzylpyrazine]	–	–	8 µM	46 µM	–
CCc1cnc(-c2ccc(OC)cc2)c(-c2ccc(OC)cc2)n1 [Example 8, 2,3-bis(p-methoxyphenyl)-5-ethylpyrazine]	–	–	0.046 µM	0.64 µM	–
COc1ccc(-c2ncc(C)nc2-c2ccc(OC)cc2)cc1 [Example 2, 2,3-bis(p-methoxyphenyl)-5-methylpyrazine]	–	–	0.03 µM	0.042 µM	30 µM
